Assay results from patent publication US11679124B2, “Composition for use in the treatment of conditions caused by calcium deficiency” (Epicyt Pharma AB, priority 2018, dated 2023).

Columns and labels:
Type in all cases: cell-based, human
[1] = system: Caco-2 cells; test: Ca2+ transport across Caco-2 monolayer without calcium gradient; details: 10 nM 1.25(OH)2-vitamin D3, last 48 hours; no Ca2+ gradient, 1.8 mM on each side
Method: The Caco-2 cells were cultivated in on permeable support for 11-14 days, slightly modified according to Giuliano A. R., & Wood R. J. On the day of the experiments the trans-epithelial electrical resistance was measured and only preparations with values between 400 and 900 Ohms×cm^2 were counted. Tested substances were given in the top compartment and effect as read after 24 to 48 h. Ca^2+ flux was measured using liquid scintillation comparing the lower compartment with the upper.
In the present experiment the Caco-2 cells were cultured and grown to epithelium-shaped confluence over 14 days. The following experiments were performed according to Giuliano A. R., & Wood R. J. The effect of 10 nM 1.25(OH)2-vitamin D3 on the calcium transport was tested during the last 48 hours. Flux was tested without calcium (Ca^2+) gradient, concentration of calcium was 1.8 mM on each side of the layer of cells.
In the present experiment the Caco-2 cells were cultured and grown to epithelium-shaped confluence over 12 days. The cells were then grown in another 4 days in presence of 0.1 mM GCA, or in presence with 0.5 mM butyrate, or in presence of the GCA and butyrate in combination.
The effect of 10 nM 1.25(OH)2-vitamin D3 on the calcium transport was tested during the last 48 hours. […]

[2] = system: claudin-2; test: Claudin-2 protein expression in Caco-2 cells, western blot; details: vitamin D 10 μM or 100 μM, geldanamycin 0.5 μM
Method: (§1) Caco-2 cells with a passage or about 45 (number of time they have been divided) (Sigma-Aldrich Stockholm Sweden) were cultured in Dulbecco's Modified Eagle's Medium (Life Technologies Invitrogen AB, Lidingo, Sweden), with 10% Foetal Bovine Serum (FBS) (Life Technologies), 1% Non Essential Amino Acid (NEAA) (Life Technologies), 100 IU/mL Penicillin Streptomycin (Pen-Strep) (Life Technologies). The cells were incubated in 37° C. with 5% CO2 and cultured in a cell culture flask (BD Falcon®, VWR Internationals, Stockholm, Sweden) and the medium was changed at Monday, Wednesday and Friday every week.
The cells were cultured for approximately 1 week before they were detached (0.25% trypsin-EDTA, Life Technologies) and seeded in 6 well plates with semipermeable filter inserts (3 μm pore size, BD Biosciences, Le Pont de Claix, France), 200 000 cells/well. At confluence the culture medium was changed to FBS-free in both the upper and lower well compartment and to the lower compartment also a mixture of […] insulin, 0.55 μg/mL transferring and 6.7 ng/mL selenium (ITS, Life Technologies) was added to establish cell polarity and structural differentiation (6-7). The cell monolayers were let to cultivate for 14 days before experiments. […]

[3] = system: Hsp 90β; test: Hsp 90β expression in Caco-2 cells, western blot; details: 48 h, GCA 1×10^−4 M, butyrate 5×10^−4 M, vs. vehicle control
Method: as §1, with “week. […]” for “week.”
For the protein harvesting, the cells was scraped into lysis buffer in protein kinase blocking solution (1% Triton x-100, EDTA; ethylenediaminetetraacetic acid) containing protein kinase inhibitor buffer (10 mM potassium phosphate buffer pH 6.8, 10 mM 3-[(3-cholamidopropyl) dimethylammonio]-1-propane sulphonate (CHAPS: Boehringer Mannheim, Mannheim, Germany) and protease inhibitor cocktail tablet Complete (Roche Diagnostics AB, Stockholm, Sweden). After shaking several times on ice, the cell debris was removed by centrifugation (10000×g for 10 min at 4° C.) and the supernatant's protein content was analysed using the Bradford method. […]

## C=C1/C(=C\C=C2/CCC[C@]3(C)[C@@H]([C@H](C)CCCC(C)(C)O)CC[C@@H]23)C[C@@H](O)C[C@@H]1O [1.25(OH)2-vitamin D3]
[1]
  calcium transport (Experiment 3): active transport of vitamin D was confirmed

## vitamin-D
[2]
  claudin-2 protein expression: increase claudin-2 protein expression

## C[C@H](CCC(=O)NCC(=O)O)[C@H]1CC[C@H]2[C@@H]3[C@H](O)C[C@@H]4C[C@H](O)CC[C@]4(C)[C@H]3C[C@H](O)[C@]12C [GCA, glycocholic acid]
[3]
  Hsp 90β protein expression normalized to GAPDH: no effect by itself
